Laboratory results taken from US20260207572A1, “METHODS AND COMPOSITIONS FOR TREATMENT OF SUBJECTS WITH HEPATIC IMPAIRMENTS” (ELEVAR THERAPEUTICS, INC., priority 2022, published 2026).
Like-named read-outs stand apart in the source and are kept apart here.

Test: Phase 1 single-dose plasma pharmacokinetics in subjects with normal hepatic function, mild or moderate hepatic impairment
Assay type: in vivo, human
Details: for Plasma concentration, Arithmetic Mean / Plasma concentration, Median: Predose; for AUC(0-t) / AUC(0-inf) / Cmax / Vd/F / half-life / Tmax / concentration at 0.5 h / concentration at 1 h / concentration at 2 h / concentration at 3 h / concentration at 4 h / concentration at 6 h / concentration at 8 h / concentration at 12 h / concentration at 16 h / concentration at 24 h / concentration at 36 h / concentration at 48 h: human, plasma, 200 mg
Description: Patients: 27 subjects were enrolled within the following groups based on their Child-Pugh (CP) classification score: • Group 1: Matched-control healthy subjects with normal hepatic function; • Group 2: Subjects with mild hepatic impairment (CP Class A, score of 5 or 6); • Group 3: Subjects with moderate hepatic impairment (CP Class B, score of 7 to 9).
A parallel design strategy was adopted for the hepatic impairment groups. Each matched-control healthy subject (Group 1) was enrolled following the enrollment of a mild and/or moderate hepatic impairment subject and was demographically matched by age (±10 years), BMI (±20%), and sex to the enrolled hepatic impairment subject(s). Subjects with normal hepatic function were not matched to more than 1 hepatically-impaired subject within an impairment group; however, subjects with normal hepatic function could be matched to 1 subject from more than 1 hepatic impairment group.
Other noncompartmental parameters could be reported.
The paired t-test was performed separately for each hepatic impairment group and the corresponding matched healthy controls. Estimates of geometric mean ratios in primary PK parameters between each level of impaired hepatic function versus the matched healthy controls were presented along with the corresponding 90% confidence intervals (CIs) for the geometric mean ratios. The p-value assessing the difference between each impairment group and the healthy control group was presented.
The PK analysis was conducted by Covance Early Clinical Biometrics using WinNonlin Version 8.1.

[1] = Mild Hepatic Impairment, 200 mg single oral dose
[2] = Moderate Hepatic Impairment, 200 mg single oral dose
[3] = Normal Hepatic Function, 200 mg single oral dose
[4] = po, Mild Hepatic Impairment, 200 mg single oral dose, read-out: Plasma concentration, Arithmetic Mean
[5] = po, Mild Hepatic Impairment, 200 mg single oral dose, read-out: Plasma concentration, Geometric Mean
[6] = po, Mild Hepatic Impairment, 200 mg single oral dose, read-out: Plasma concentration, Median

In the case of `N#CC1(c2ccc(NC(=O)c3cccnc3NCc3ccncc3)cc2)CCCC1` [Rivoceranib, N-[4-(1-cyanocyclopentyl)phenyl]-2-{[(pyridin-4-yl)methyl]amino} pyridine-3-carboxamide], the “AUC0-∞, Geometric Mean” value [1] is reported as 2.30866 µg·h/mL, the “CL/F, Arithmetic Mean” value [1] is reported as 103.183 L/h and the “CL/F, Geometric Mean” value [1] is reported as 86.630 L/h. The “CL/F, Median” value [1] was 93.423 L/h, the “Plasma concentration, Arithmetic Mean” value [1] was 0 µg/mL and the “Plasma concentration, Median” value [1] was 0 µg/mL. The “CL/F, Arithmetic Mean” value [2] was 89.904 L/h, the “CL/F, Geometric Mean” value [2] was 81.335 L/h and the “CL/F, Median” value [2] was 77.251 L/h. For the same compound, the “Plasma concentration, Arithmetic Mean” value [2] was 0 µg/mL, the “Plasma concentration, Median” value [2] was 0 µg/mL and the “CL/F, Arithmetic Mean” value [3] was 68.404 L/h. For the same compound, the “CL/F, Geometric Mean” value [3] was 65.546 L/h, the “CL/F, Median” value [3] was 69.489 L/h and the “Plasma concentration, Arithmetic Mean” value [3] was 0 µg/mL. For the same compound, the “Plasma concentration, Median” value [3] was 0 µg/mL, the AUC(0-t) (oral, Mild vs Normal: Mild hepatic impairment, paired analysis, read-out: AUC0-t, Geometric Least Squares Mean, Test) was 2.08 µg·h/mL and the AUC(0-inf) (oral, Mild vs Normal: Mild hepatic impairment, paired analysis, read-out: AUC0-∞, Geometric Least Squares Mean, Test) was 2.52 µg·h/mL. It also gave a Cmax (oral, Mild vs Normal: Mild hepatic impairment, paired analysis, read-out: Cmax, Geometric Least Squares Mean, Test) of 0.182 µg/mL, an AUC(0-t) (oral, Mild vs Normal: matched Normal hepatic function, paired analysis, read-out: AUC0-t, Geometric Least Squares Mean, Reference) of 2.82 µg·h/mL and an AUC(0-inf) (oral, Mild vs Normal: matched Normal hepatic function, paired analysis, read-out: AUC0-∞, Geometric Least Squares Mean, Reference) of 3.02 µg·h/mL. The Cmax (oral, Mild vs Normal: matched Normal hepatic function, paired analysis, read-out: Cmax, Geometric Least Squares Mean, Reference) was 0.303 µg/mL, the AUC(0-t) (oral, Moderate vs Normal: Moderate hepatic impairment, paired analysis, read-out: AUC0-t, Geometric Least Squares Mean, Test) was 2.38 µg·h/mL and the AUC(0-inf) (oral, Moderate vs Normal: Moderate hepatic impairment, paired analysis, read-out: AUC0-∞, Geometric Least Squares Mean, Test) was 2.43 µg·h/mL. For the same compound, the Cmax (oral, Moderate vs Normal: Moderate hepatic impairment, paired analysis, read-out: Cmax, Geometric Least Squares Mean, Test) was 0.21 µg/mL, the AUC(0-t) (oral, Moderate vs Normal: matched Normal hepatic function, paired analysis, read-out: AUC0-t, Geometric Least Squares Mean, Reference) was 2.55 µg·h/mL and the AUC(0-inf) (oral, Moderate vs Normal: matched Normal hepatic function, paired analysis, read-out: AUC0-∞, Geometric Least Squares Mean, Reference) was 2.98 µg·h/mL. The Cmax (oral, Moderate vs Normal: matched Normal hepatic function, paired analysis, read-out: Cmax, Geometric Least Squares Mean, Reference) was 0.247 µg/mL, the AUC(0-t) (po, Mild Hepatic Impairment, 200 mg single oral dose, read-out: AUC0-t, Arithmetic Mean) was 2.55 µg·h/mL and the AUC(0-t) (po, Mild Hepatic Impairment, 200 mg single oral dose, read-out: AUC0-t, Geometric Mean) was 2.07 µg·h/mL. It also gave an AUC(0-t) (po, Mild Hepatic Impairment, 200 mg single oral dose, read-out: AUC0-t, Median) of 1.94 µg·h/mL, an AUC(0-inf) (po, Mild Hepatic Impairment, 200 mg single oral dose, read-out: AUC0-∞, Arithmetic Mean) of 2.84 µg·h/mL and an AUC(0-inf) (po, Mild Hepatic Impairment, 200 mg single oral dose, read-out: AUC0-∞, Geometric Mean) of 2.31 µg·h/mL. For the same compound, the AUC(0-inf) (po, Mild Hepatic Impairment, 200 mg single oral dose, read-out: AUC0-∞, Median) was 2.14 µg·h/mL, the Cmax (po, Mild Hepatic Impairment, 200 mg single oral dose, read-out: Cmax, Arithmetic Mean) was 0.291 µg/mL and the Cmax (po, Mild Hepatic Impairment, 200 mg single oral dose, read-out: Cmax, Geometric Mean) was 0.182 µg/mL. For the same compound, the Cmax (po, Mild Hepatic Impairment, 200 mg single oral dose, read-out: Cmax, Median) was 0.202 µg/mL, the Vd/F (po, Mild Hepatic Impairment, 200 mg single oral dose, read-out: VZ/F, Arithmetic Mean) was 1830 L and the Vd/F (po, Mild Hepatic Impairment, 200 mg single oral dose, read-out: VZ/F, Geometric Mean) was 1400 L. For the same compound, the Vd/F (po, Mild Hepatic Impairment, 200 mg single oral dose, read-out: VZ/F, Median) was 1100 L, the half-life (po, Mild Hepatic Impairment, 200 mg single oral dose, read-out: t1/2, Arithmetic Mean (converted)) was 13.3 ± 5.58 h and the half-life (po, Mild Hepatic Impairment, 200 mg single oral dose, read-out: t1/2, Geometric Mean (converted)) was 12.4 h. It also gave a half-life (po, Mild Hepatic Impairment, 200 mg single oral dose, read-out: t1/2, Median (converted)) of 12.3 h, a Tmax (po, Mild Hepatic Impairment, 200 mg single oral dose, read-out: tmax, Arithmetic Mean) of 3.6 h and a Tmax (po, Mild Hepatic Impairment, 200 mg single oral dose, read-out: tmax, Geometric Mean) of 2.8 h. It also gave a Tmax (po, Mild Hepatic Impairment, 200 mg single oral dose, read-out: tmax, Median) of 2.5 h, a concentration at 0.5 h [4] of 0.0415 µg/mL and a concentration at 0.5 h [5] of 0.0295 µg/mL. For the same compound, the concentration at 0.5 h [6] was 0.0302 µg/mL, the concentration at 1 h [4] was 0.178 µg/mL and the concentration at 1 h [5] was 0.112 µg/mL. The concentration at 1 h [6] was 0.149 µg/mL, the concentration at 2 h [4] was 0.279 µg/mL and the concentration at 2 h [5] was 0.165 µg/mL. It also gave a concentration at 2 h [6] of 0.194 µg/mL, a concentration at 3 h [4] of 0.22 µg/mL and a concentration at 3 h [5] of 0.138 µg/mL. For the same compound, the concentration at 3 h [6] was 0.155 µg/mL, the concentration at 4 h [4] was 0.164 µg/mL and the concentration at 4 h [5] was 0.112 µg/mL. For the same compound, the concentration at 4 h [6] was 0.0958 µg/mL, the concentration at 6 h [4] was 0.122 µg/mL and the concentration at 6 h [5] was 0.0954 µg/mL. The concentration at 6 h [6] was 0.0913 µg/mL, the concentration at 8 h [4] was 0.096 µg/mL and the concentration at 8 h [5] was 0.0778 µg/mL. The concentration at 8 h [6] was 0.0685 µg/mL, the concentration at 12 h [4] was 0.0666 µg/mL and the concentration at 12 h [5] was 0.0549 µg/mL. The concentration at 12 h [6] was 0.0439 µg/mL, the concentration at 16 h [4] was 0.0543 µg/mL and the concentration at 16 h [5] was 0.0453 µg/mL. For the same compound, the concentration at 16 h [6] was 0.0396 µg/mL, the concentration at 24 h [4] was 0.0345 µg/mL and the concentration at 24 h [5] was 0.029 µg/mL. It also gave a concentration at 24 h [6] of 0.026 µg/mL, a concentration at 36 h [4] of 0.0161 µg/mL and a concentration at 36 h [5] of 0.0152 µg/mL. The concentration at 36 h [6] was 0.0138 µg/mL, the concentration at 48 h [4] was 0.0085 µg/mL and the concentration at 48 h [5] was 0.00997 µg/mL. For the same compound, the concentration at 48 h [6] was 0.00726 µg/mL, the AUC(0-t) (po, Moderate Hepatic Impairment, 200 mg single oral dose, read-out: AUC0-t, Arithmetic Mean) was 2.59 µg·h/mL and the AUC(0-t) (po, Moderate Hepatic Impairment, 200 mg single oral dose, read-out: AUC0-t, Geometric Mean) was 2.38 µg·h/mL. It also gave an AUC(0-t) (po, Moderate Hepatic Impairment, 200 mg single oral dose, read-out: AUC0-t, Median) of 2.45 µg·h/mL, an AUC(0-inf) (po, Moderate Hepatic Impairment, 200 mg single oral dose, read-out: AUC0-∞, Arithmetic Mean) of 2.66 µg·h/mL and an AUC(0-inf) (po, Moderate Hepatic Impairment, 200 mg single oral dose, read-out: AUC0-∞, Geometric Mean) of 2.46 µg·h/mL. The AUC(0-inf) (po, Moderate Hepatic Impairment, 200 mg single oral dose, read-out: AUC0-∞, Median) was 2.59 µg·h/mL, the Cmax (po, Moderate Hepatic Impairment, 200 mg single oral dose, read-out: Cmax, Arithmetic Mean) was 0.239 µg/mL and the Cmax (po, Moderate Hepatic Impairment, 200 mg single oral dose, read-out: Cmax, Geometric Mean) was 0.21 µg/mL. It also gave a Cmax (po, Moderate Hepatic Impairment, 200 mg single oral dose, read-out: Cmax, Median) of 0.18 µg/mL, a Vd/F (po, Moderate Hepatic Impairment, 200 mg single oral dose, read-out: VZ/F, Arithmetic Mean) of 2250 L and a Vd/F (po, Moderate Hepatic Impairment, 200 mg single oral dose, read-out: VZ/F, Geometric Mean) of 2020 L. For the same compound, the Vd/F (po, Moderate Hepatic Impairment, 200 mg single oral dose, read-out: VZ/F, Median) was 2090 L and the half-life (po, Moderate Hepatic Impairment, 200 mg single oral dose, read-out: t1/2, Arithmetic Mean (converted)) was 18.7 ± 3.97 h.
